From the NIST ThermoML archive (doi:10.1016/j.fluid.2006.01.008)

Legend:
[1] = 298.15 K, 101.33 kPa, Liquid; for viscosity: Capillary tube (Ostwald / Ubbelohde) method; for speed of sound: Sing-around technique in a fixed-path interferometer; for mass density: Vibrating tube method
[2] = refractive index (Na D-line) (dimensionless); settings: 298.15 K; 101.33 kPa; Liquid; Standard Abbe refractometry
[3] = xn = mol fraction of the nth substance listed; settings: 298.15 K, 101 kPa, Liquid; for viscosity: Capillary tube (Ostwald / Ubbelohde) method; for speed of sound: Sing-around technique in a fixed-path interferometer; for mass density: Vibrating tube method
[4] = refractive index (Na D-line) (dimensionless); xn = mol fraction of the nth substance listed; settings: 298.15 K, 101 kPa, Liquid, Standard Abbe refractometry

CCO [ethanol]
Settings	mass density [kg/m3]	refractive index	speed of sound [m/s]	viscosity [mPa·s]
[1]	785.22	–	1144	1.077
[2]	–	1.3592	–	–

CO [methanol]
Settings	mass density [kg/m3]	refractive index	speed of sound [m/s]	viscosity [mPa·s]
[1]	786.63	–	1102	0.541
[2]	–	1.3264	–	–

CCCCCCCC[n+]1ccn(C)c1.F[B-](F)(F)F [1-methyl-3-octylimidazolium tetrafluoroborate] + CO
Settings	mass density, [3] [kg/m3]	refractive index, [4]	speed of sound, [3] [m/s]	viscosity, [3] [mPa·s]
x1 = 0.0495	869.02	1.35534	1188	0.981
x1 = 0.0979	921.23	1.3733	1243	1.622
x1 = 0.1997	986.4	1.39501	1323	3.85
x1 = 0.2859	1018.55	1.40551	1366	7.131
x1 = 0.3648	1038.89	1.41222	1394	11.81
x1 = 0.4461	1054.52	1.41738	1416	18.9
x1 = 0.4922	1061.78	1.41982	1426	24.16
x1 = 0.5121	1064.62	1.42076	1430	27.22
x1 = 0.5709	1072.21	1.42339	1440	38.28
x1 = 0.5972	1075.25	1.42443	1445	44.63
x1 = 0.6485	1080.67	1.42629	1452	57.72
x1 = 0.785	1092.37	1.43029	1469	123.9
x1 = 0.9049	1100.21	1.43284	1482	228.6

CCCO [propan-1-ol]
Settings	mass density [kg/m3]	refractive index	speed of sound [m/s]	viscosity [mPa·s]
[1]	799.47	–	1207	1.928
[2]	–	1.38306	–	–

CCCCCCCC[n+]1ccn(C)c1.F[B-](F)(F)F [1-methyl-3-octylimidazolium tetrafluoroborate]
Settings	mass density [kg/m3]	refractive index	speed of sound [m/s]	viscosity [mPa·s]
[1]	1105.3	–	1491	359.9
[2]	–	1.43422	–	–

CCCCCCCC[n+]1ccn(C)c1.F[B-](F)(F)F [1-methyl-3-octylimidazolium tetrafluoroborate] + CCO
Settings	mass density, [3] [kg/m3]	refractive index, [4]	speed of sound, [3] [m/s]	viscosity, [3] [mPa·s]
x1 = 0.0517	849.43	1.37489	1195	1.74
x1 = 0.0818	878.24	1.38179	1218	2.25
x1 = 0.1822	946.85	1.39805	1287	4.722
x1 = 0.2779	988.78	1.40778	1336	8.542
x1 = 0.378	1019.53	1.41488	1376	14.99
x1 = 0.46	1038.64	1.41926	1398	23.42
x1 = 0.5474	1054.97	1.42304	1419	37.38
x1 = 0.5537	1056.01	1.42326	1420	38.62
x1 = 0.5636	1057.63	1.42362	1422	40.81
x1 = 0.6203	1066.22	1.4256	1434	54.88
x1 = 0.662	1071.9	1.42683	1441	67.91
x1 = 0.7749	1085.35	1.42973	1459	120.4
x1 = 0.9286	1099.7	1.43293	1481	251.9

CCCCCCCC[n+]1ccn(C)c1.F[B-](F)(F)F [1-methyl-3-octylimidazolium tetrafluoroborate] + CCCO
Settings	mass density, [3] [kg/m3]	refractive index, [4]	speed of sound, [3] [m/s]	viscosity, [3] [mPa·s]
x1 = 0.0473	844.63	1.39108	1232	2.789
x1 = 0.0982	883.64	1.3978	1256	3.942
x1 = 0.2034	943.18	1.40783	1306	7.531
x1 = 0.241	959.69	1.41061	1321	9.169
x1 = 0.2958	980.53	1.41405	1343	12.21
x1 = 0.4007	1012.5	1.41928	1377	20.65
x1 = 0.4355	1021.38	1.42071	1387	24.52
x1 = 0.4988	1035.79	1.42301	1403	33.31
x1 = 0.5506	1046.19	1.42472	1414	43.39
x1 = 0.6165	1057.95	1.42671	1428	59.9
x1 = 0.6778	1067.63	1.42832	1439	79.52
x1 = 0.7828	1081.97	1.43069	1457	130.9
x1 = 0.9118	1096.63	1.43297	1477	238.4

CCCCCCCC[n+]1ccn(C)c1.F[B-](F)(F)F [1-methyl-3-octylimidazolium tetrafluoroborate] + CC(C)O
Settings	mass density, [3] [kg/m3]	refractive index, [4]	speed of sound, [3] [m/s]	viscosity, [3] [mPa·s]
x1 = 0.0459	826.83	1.38385	1170	2.956
x1 = 0.0892	862.39	1.39059	1198	3.955
x1 = 0.182	921.09	1.40147	1254	7.053
x1 = 0.2506	953.75	1.40743	1291	10.15
x1 = 0.2965	972	1.41077	1312	12.88
x1 = 0.3677	996.08	1.41503	1343	18.27
x1 = 0.4214	1011.52	1.41781	1362	23.79
x1 = 0.4798	1026.24	1.42048	1381	31.66
x1 = 0.5028	1031.53	1.42134	1387	35.48
x1 = 0.6166	1054.39	1.42547	1416	61.95
x1 = 0.7089	1069.7	1.42817	1437	96.3
x1 = 0.7558	1076.59	1.42938	1446	120.5
x1 = 0.8697	1091.33	1.43182	1467	202.6

CC(C)O [propan-2-ol]
Settings	mass density [kg/m3]	refractive index	speed of sound [m/s]	viscosity [mPa·s]
[1]	780.95	–	1140	2.054
[2]	–	1.3752	–	–
